Data from ChEMBL document CHEMBL4613299, “Optimization of Indazole-Based GSK-3 Inhibitors with Mitigated hERG Issue and In Vivo Activity in a Mood Disorder Model” (ACS Med Chem Lett, 2020).
Values after ≈ are worked out from the molar mass of the structure shown.

Assays:
[1] = Cmax in plasma of CD1 mouse at 10 mg/kg, ip measured up to 7 hrs by LC-MS/MS analysis; assay type: ADME, organism-based; parameters: dose 10 mg/kg, route intraperitoneal
[2] = Half life in CD1 mouse at 10 mg/kg, ip measured up to 7 hrs by LC-MS/MS analysis; assay type: ADME, organism-based; details: in vivo
[3] = Half life in human pooled liver microsomes at 10 uM incubated in shaking water bath measured up to 60 mins in presence of NADPH by HPLC-MS/MS analysis; assay type: ADME, Microsome
[4] = Aqueous solubility of compound in PBS buffer at 200 uM and pH 7.4 incubated for 24 hrs under shaking condition by chromatographic analysis; assay type: physicochemical
[5] = Cmax in brain of CD1 mouse at 10 mg/kg, ip measured up to 7 hrs by LC-MS/MS analysis; assay type: ADME, organism-based; parameters: dose 10 mg/kg, route intraperitoneal
[6] = AUC (0 to infinity) in CD1 mouse at 10 mg/kg, ip measured up to 7 hrs by LC-MS/MS analysis; assay type: ADME, organism-based; parameters: dose 10 mg/kg, time infinity, route intraperitoneal; details: in vivo
[7] = Half life in CD mouse pooled liver microsomes at 10 uM incubated in shaking water bath measured up to 60 mins in presence of NADPH by HPLC-MS/MS analysis; assay type: ADME, Microsome
[8] = Tmax in CD1 mouse at 10 mg/kg, ip measured up to 7 hrs by LC-MS/MS analysis; assay type: ADME, organism-based; details: in vivo
[9] = AUC (0 to t) in CD1 mouse at 10 mg/kg, ip measured up to 7 hrs by LC-MS/MS analysis; assay type: ADME, organism-based; parameters: time < 7 hr, dose 10 mg/kg, route intraperitoneal; details: in vivo

Cmax [1]: 949 ng/mL | half-life [2]: 2 h | half-life at 10 µM [3]: > 1 h | solubility at 24 h, 200 µM [4]: 200 µM (≈ 73.3 µg/mL) | Cmax [5]: 21.1 ng/g | AUC(0-inf) [6]: 791 ng·h/mL | half-life at 10 µM [7]: > 1 h | Tmax [8]: 0.5 h | AUC(0-t) at 7 h [9]: 781 ng·h/mL
SMILES: O=C(NCC1CCOCC1)c1n[nH]c2ccc(-c3cncc(CO)c3)cc12
